Reference: patent US20260345584A1, “METHODS AND PHARMACEUTICAL COMPOSITIONS FOR TREATING CHEMOTHERAPY-INDUCED PERIPHERAL NEUROPATHY WITH EG5 INHIBITORS” (UNIVERSITY OF MIAMI, priority 2023, published 2026)

Columns and labels:
skin gene expression = assay: Human skin RNAseq of paclitaxel-treated CIPN patients; format: in vivo
Method: Neurological history, examination, and QLQ-CIPN20 quality of life questionnaire, which has been validated to detect the presence of CIPN (Postma et al., 2005, Eur J Cancer 41: 1135-1139), was completed in all subjects. Consent was given to obtain two skin punch biopsies of approximately 4 mm diameter. These were collected 10 cm proximal to the lateral malleolus on the distal leg as described previously (Engelstad et al., 2012, Neurology 79: 2187-2193). The biopsies were carried out under anesthesia following local injection of 2% lidocaine with epinephrine, using a sterile technique. In addition, three healthy volunteers of similar age and same gender (female) were recruited as controls. […] Sequence reads were trimmed to remove possible adapter sequences and nucleotides with poor quality using Trimmomatic v.0.36. The trimmed reads were mapped to the Homo sapiens GRCh38 reference genome available on ENSEMBL using the STAR aligner v.2.5.2b. The STAR aligner was a splice aligner that detects splice junctions and incorporates them to help align the entire read sequences. […] Unique gene hit counts were calculated by using featureCounts from the Subread package v.1.5.2. […] Only unique reads that fell within exon regions were counted. If a strand-specific library preparation was performed, the reads were strand-specifically counted. […]

[1] = test system: microtubule acetylation in keratinocytes; assay: Keratinocyte microtubule acetylation (K40); format: in vivo, zebrafish; settings: 22 μM paclitaxel, 96 hr, with and without EMD534085
Method: Larval fish were transferred into […] glass vials and fixed in 4% paraformaldehyde (PFA)/1× Phosphate-buffered saline (PBS) for 1.5 hr at room temperature, with gentle rocking. Following a 5-minute incubation in 1×PBS+0.1% Tween-20 (PBST), zebrafish were permeabilized in 1×PBS+0.1% Triton X-100 for 10-30 min. Larval fish were transferred into 2 ml reaction tubes and incubated in blocking buffer (1×PBST+5% BSA) for 30 min at room temperature, with rocking. Larval fish were further incubated overnight in antibody solution (Millipore Sigma, Cat. No. AB3201, 1:300 rabbit anti-GluTub; Sigma, Cat No. T6793, 1:500 mouse anti-acetylated tubulin) in blocking buffer at 4 °C, on a rotator. The next morning, larval fish were transferred into 6-well plates and washed 4×15 min in 1×PBST at room temperature, with rocking. This was followed by incubation in secondary antibody (goat anti-rabbit Cy5, Abcam, Cat. No. ab97077; goat anti-mouse Cy3, Abcam, Cat. No. ab97035) and 1:10,000 Hoechst 33342 (ThermoFisher Scientific, Cat. No. 62249, 20 mM solution) in blocking buffer for 1 hr at room temperature, with rocking. Fish were covered to avoid bleaching. […]

CC(=O)O[C@H]1C(=O)[C@@]2(C)[C@H]([C@H](OC(=O)c3ccccc3)[C@]3(O)C[C@H](OC(=O)[C@H](O)[C@@H](NC(=O)c4ccccc4)c4ccccc4)C(C)=C1C3(C)C)[C@]1(OC(C)=O)CO[C@@H]1C[C@@H]2O [paclitaxel]
KIF11 expression (skin gene expression; CIPN patients after paclitaxel vs controls): upregulated in all three patients | NOX1 and CYBB expression (skin gene expression; CIPN patients after paclitaxel vs healthy controls): most highly upregulated genes | keratinocyte microtubule acetylation [1]: an increase in keratinocyte microtubule acetylation after 96 hr paclitaxel treatment with and without EMD534085
